Experimental data published in patent US10202345B2, “Substituted azaspiro(4.5)decane derivatives” (priority 2014, dated 2019).

Tests used:
human μ opiate receptor = human μ opiate receptor (Homo sapiens, UniProt P35372); test: μ opiate receptor binding assay with [3H]-naloxone (WGA-SPA beads); conditions: mean
human μ opiate receptor, sequence (P35372 whole entry): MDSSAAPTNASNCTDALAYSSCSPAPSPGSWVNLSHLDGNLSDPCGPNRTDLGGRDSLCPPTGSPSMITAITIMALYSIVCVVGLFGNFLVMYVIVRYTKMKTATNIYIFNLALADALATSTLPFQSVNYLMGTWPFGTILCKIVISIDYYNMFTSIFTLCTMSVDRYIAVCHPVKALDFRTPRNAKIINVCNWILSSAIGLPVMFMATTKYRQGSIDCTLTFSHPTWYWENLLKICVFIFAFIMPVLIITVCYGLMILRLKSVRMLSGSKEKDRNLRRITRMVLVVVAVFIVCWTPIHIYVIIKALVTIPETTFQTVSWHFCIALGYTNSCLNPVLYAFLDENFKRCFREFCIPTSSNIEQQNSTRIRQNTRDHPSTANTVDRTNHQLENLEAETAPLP

SMILES | Ki (human μ opiate receptor) [µM] | melting point [°C]
CN(C)C1(Cc2ccccc2)CCC2(CCNC2=O)CC1 (single isomer, unassigned) [Example 1, 8-Benzyl-8-(dimethyl-amino)-3-azaspiro[4.5]decan-4-one] | 1.06 | –
CN(C)C1(Cc2ccccc2)CCC2(CCNC2=O)CC1 (single isomer, unassigned) [Example 2, 8-Benzyl-8-(dimethyl-amino)-3-azaspiro[4.5]decan-4-one] | 4.79 | 202 to 204
CN(C)C1(Cc2ccccc2)CCC2(CCNC2)CC1 (single isomer, unassigned) [Example 3, (8-Benzyl-3-azaspiro[4.5]decan-8-yl)-dimethylamine] | 1.83 | –
CN(C)C1(Cc2ccccc2)CCC2(CCNC2)CC1 (single isomer, unassigned) [Example 4, (8-Benzyl-3-azaspiro[4.5]decan-8-yl)-dimethylamine] | 0.92 | –
CN1CCC2(CCC(Cc3ccccc3)(N(C)C)CC2)C1 (single isomer, unassigned) [Example 5, (8-Benzyl-3-methyl-3-azaspiro[4.5]decan-8-yl)-dimethylamine] | 1.45 | –
CN1CCC2(CCC(Cc3ccccc3)(N(C)C)CC2)C1 (single isomer, unassigned) [Example 6, (8-Benzyl-3-methyl-3-azaspiro[4.5]decan-8-yl)-dimethylamine] | 1.1 | 57 to 58
CCCCN1CCC2(CCC(C(=O)c3ccccc3)(N(C)C)CC2)C1 (single isomer, unassigned) [Example 107, [3-Butyl-8-(dimethylamino)-3-azaspiro[4.5]decan-8-yl]-phenylmethanone] | 0.95 | –
CN(C)C1(CC2CCCCC2)CCC2(CCNC2=O)CC1 (centres unmarked) [Example 92, 8-(Cyclohexylmethyl)-8-dimethylamino-3-azaspiro[4.5]decan-4-one] | 3590 | –
CN1CCC2(CCC(Cc3ccccc3)(N(C)C)CC2)C1=O (centres unmarked) [Example 118] | 5.5 | –
CN1CCC2(CCC(Cc3ccccc3)(N(C)C)CC2)C1=O (centres unmarked) [Example 119] | 3.57 | –
CN1CC2(CCC(C3CCCC3)(N(C)C)CC2)CC1=O (centres unmarked) [Example 282] | 0.295 | –
CN(C)C1(C2CCCC2)CCC2(CCN(C(=O)C3COC3)C2)CC1 (centres unmarked) [Example 291] | 0.175 | –
